We go through three compounds from US20260306494A1, “LIQUID AND SOLID COMPOSITIONS OF IMIPRIDONE DERIVATIVES” (INSTITUT GUSTAVE ROUSSY, priority 2023, published 2026).

The conditions of data set [1]: in vivo; cited from earlier work.
The next data set deals with recurrent H3K28M DMG. Particulars: human, in vivo; cited from earlier work.
The nature of the next data set: physchem. Particulars: water, solubility in water.

As a reminder, the solubility is the dissolved amount per volume that the medium holds. Higher therefore signals much dissolved substance.

In the case of `NC(=O)c1cccnc1` [Nicotinamide], the “NOAEL (No Observed Adverse Effect Level)” value in data set [1] is reported as “around 200 mg/kg bw”. Take `Cc1ccccc1CN1C(=O)C2=C(CCN(Cc3ccccc3)C2)N2CCN=C12` [ONC201, 7-Benzyl-4-(2-methylbenzyl)-1,2,6,7,8,9-hexahydroimidazo[1,2-a]pyrido[3,4-e]pyrimidin-5 (4H)-one]: in the data set with recurrent H3K28M DMG, the response of patients result was “sustained response”. As for `Cc1ccccc1CN1C(=O)C2=C(CCN(Cc3ccccc3)C2)N2CCN=C12` [ONC201.2HCl], the solubility in the data set “physchem” was 41.4 mg/mL.
